This assay relates to HCT-116 tumors. Nature of the assay: Tumor growth inhibition experiment in HCT-116 tumor xenograft mouse model. It counts as in vivo. The conditions noted are these: for Volume of Tumor (mm^3, Average, n = 4): HCT-116 xenograft, BALB/c nude mice, intratumoral injection every two days, eight injections, olaparib 28.5 μg. As for the experimental part:
For the delivery of RNP, lipid nanoparticles (LNPs) were prepared using an ethanol dilution method. All lipids (the molar ratio of C12-200/DOPE/cholesterol/DMG-PEG/DOTAP in the LNPs was fixed at 35/16/46.5/2.5/11.11) were dissolved in ethanol. RNPs (with a molar ratio of sgRNA to Cas9 protein of 1:1) were dissolved in PBS (pH 7.4). The two solutions were rapidly mixed by pipetting at a PBS-to-ethanol ratio of 3:1 (v/v) and a total lipid-to-sgRNA ratio of 20:1 (w/w), followed by incubation at room temperature for 15 minutes. For in vivo experiments, the RNP-loaded LNP formulation was purified by dialysis against PBS for 2 hours using a dialysis kit (Pur-A-Lyzer Midi Dialysis Kits, MWCO 3.5 kDa) and then concentrated using Amicon Ultra-15 centrifugal filters (MWCO 50 kDa), followed by intratumoral injection (50 μg of sgRNA-loaded LNP per injection). The above C12-200 was purchased from Cayman Chemical. The above DOPE, DOTAP, and DMG-PEG (MW 2000) were purchased from Avanti Polar Lipids. The above Cholesterol, the Pur-A-Lyzer Midi Dialysis Kit (MWCO, 3.5 kDa), and the Amicon Ultra-15 centrifugal filters (MWCO, 50 kDa) were purchased from Sigma. All chemicals were used without further purification.
Female BALB/c nude mice (5 weeks old) were purchased from Orient Bio and used for all animal experiments. The mice were handled in accordance with the guidelines of the Institutional Animal Care and Use Committee of Ulsan National Institute of Science and Technology ([…]-23-09). In the case of the xenograft model, 5×10^6 HCT116 cells stably expressing Cas9WT were suspended in 60 μL of PBS (pH 7.4) and mixed with 60 μL of Matrigel (BD Bioscience), followed by subcutaneous injection into the flank of each mouse. Tumor volume and body weight were measured every two days. Tumor volume was calculated using the following formula.
In the above formula, V represents the volume, a represents the length of the long axis, and b represents the length of the short axis.
When the tumor volume reached approximately 80 mm^3, the mice were randomly divided into multiple groups for experimentation.
To evaluate the antitumor efficacy of the administered materials in each group, mice bearing tumors established according to Experimental Example 1.11 were anesthetized with 1.5% isoflurane, and the administered material (PBS or LNP) was intratumorally injected every two days. A total of eight injections were performed over a period of 14 days, and the mice were sacrificed on day 25.
The tumor growth inhibition rate was calculated using the following formula.
Here, VDay0,treatment and VDay24,treatment represent the tumor volumes of the treatment group on day 0 and day 24, respectively, and VDay0,control and VDay24,control represent the tumor volumes of the control group administered with PBS on day 0 and day 24, respectively.
The tumor xenograft mouse model prepared according to Experimental Example 1.10 was randomly divided into four groups. Then, a PARP inhibitor and a CRISPR/nCas composition for cell death were administered according to Experimental Example 1.11 to confirm tumor growth inhibition effects. Specifically, 28.5 μg of olaparib diluted in PBS and the CRISPR/nCas composition for cell death were administered.

Regarding `O=C(c1cc(Cc2n[nH]c(=O)c3ccccc23)ccc1F)N1CCN(C(=O)C2CC2)CC1` [Olaparib, olaparib], the “Volume of Tumor (mm^3, Average, n = 4)” value is, setting by setting: (Day 0) 82.1 mm^3; (Day 2) 117.0 mm^3; (Day 4) 172.6 mm^3; (Day 6) 241.8 mm^3; (Day 8) 320.3 mm^3; (Day 10) 371.2 mm^3. Moreover, the “Volume of Tumor (mm^3, Average, n = 4)” value runs as follows: (Day 12) 476.0 mm^3; (Day 14) 542.7 mm^3; (Day 16) 610.7 mm^3; (Day 18) 702.9 mm^3; (Day 20) 847.8 mm^3; (Day 22) 907.4 mm^3. Also, for the setting “Day 24”, the “Volume of Tumor (mm^3, Average, n = 4)” value is reported as 996.7 mm^3. Moreover, for the setting “calculated from tumor volumes on day 0 and day 24 versus PBS control, HCT-116 xenograft mice”, the “Tumor Inhibition Rate (%)” value is reported as 8.10%.
